Converted amounts (≈) assume the structure as drawn. “And” between values parts separate entries of the source, which are not always exact repeats. Identical values can stand only once. Like-named read-outs stand apart in the source and are kept apart here. Marks after values point to notes of the source that are not given here.
How the values were obtained:
[1] = tested on: CYP2C9 1*/3*
[2] = physchem; type: physicochemical
Text: An experimental estimate of FLU pKa was obtained by fitting the Henderson–Hasselbalch equation (Equation (1)) to the mean aqueous equilibrium solubility (Si) values using the SIVA Toolkit version 3.0 (SIVA 3; Certara, Simcyp Division; Sheffield, UK). The lowest reported value in buffers was assumed to represent the intrinsic solubility (S0) . The pKa was then compared with values available in the literature to confirm the validity of the aqueous solubility parameter estimates. (1) Si=S0·10 ^pH−pKa The impact of bile salt concentration BS and subsequent formation of micelles on the solubility of FLU was investigated. […] Estimates of the logarithm of the micelle-water partition coefficient for the neutral Km:w,unionized and ionized drug Km:w,ionized were obtained to quantify the micelle-mediated solubility. […] Estimation of the relevant parameters was performed using the Nelder–Mead algorithm with weighting by the reciprocal of the predicted values. All estimates based on the in vitro solubility data were used as in silico input parameters for the development of the physiologically based pharmacokinetic (PBPK) model.

[3] = tested on: UGT2B7; details: Recombinant UGT; cited from earlier work
[4] = tested on: CYP2C9; details: cited from earlier work
[5] = Equilibrium solubility, Uniprep method, 24 h at 37 °C; type: physicochemical
Procedure: The solubility of FLU was investigated in various aqueous and biorelevant dissolution media using the Uniprep system (Whatman, Piscataway, NJ, USA). All aqueous buffers were prepared according to the European Pharmacopoeia, while the biorelevant media were prepared according to Markopoulos et al. and Fuchs et al.. An excess amount of API was added to 3 mL of dissolution medium and the samples were incubated for 24 h at 37 °C on an orbital mixer. The samples were then filtered through the 0.45 μm polytetrafluoroethylene (PTFE) filter integrated in the Uniprep system. The filtrate was immediately diluted with mobile phase and analyzed by high-performance liquid chromatography (HPLC) (see Section 2.5). All measurements were performed at least in triplicate (n ≥ 3) and the final pH was recorded. […] Whatman, Piscataway, NJ, USA) and subsequently, after appropriate dilution with mobile phase, analyzed by HPLC-UV (Hitachi Chromaster; Hitachi Ltd., Tokyo, Japan or Spectra System HPLC, ThermoQuest Inc., San Jose, CA, USA). A BDS Hypersil C18, 5 μm, 150 × 4.6 mm (Thermo Scientific, Waltham, MA, United States) analytical column combined with a pre-column (BDS Hypersil C-18, 3μm, 10 × 4mm) was used. The mobile phase consisted of water adjusted to pH = 3.0 with trifluoroacetic acid (TFA) and acetonitrile (49.5:0.5:50% v/v). The detection wavelength was set at 247 nm, the flow rate at 1.0 mL/min, and the injection volume at 20 μL. Using this method, the retention time was approximately 6.8 min.

[6] = parameters: method as in earlier work; details: 55 (55, 60); cited from earlier work
[7] = tested on: CYP2C9 1*/2*
[8] = tested on: Caco-2 cells; details: cited from earlier work
[9] = tested on: CYP2C9 2*/2*; details: Recombinant CYP (fu,mic = 1), cited from earlier work
[10] = tested on: CYP2C9 3*/3*; details: Recombinant CYP (fu,mic = 1), cited from earlier work
[11] = FLU po 50 mg s.d. + fluconazole po 200 mg q.d. x7, interval 2 h, CYP2C9 1*/1*, median
[12] = FLU po 50 mg s.d. + fluconazole po 200 mg q.d. x7, interval 2 h, CYP2C9 1*/3*
[13] = FLU po 50 mg s.d. + fluconazole po 200 mg q.d. x7, interval 2 h, CYP2C9 3*/3*, individual values (n=2)
[14] = FLU po 50 mg s.d. + fluconazole po 400 mg q.d. x7, interval 2 h, CYP2C9 1*/1*
[15] = FLU po 50 mg s.d. + fluconazole po 400 mg q.d. x7, interval 2 h, CYP2C9 1*/3*
[16] = FLU po 50 mg s.d. + fluconazole po 400 mg q.d. x7, interval 2 h, CYP2C9 3*/3*, individual values (n=2)
[17] = FLU po 50 mg s.d. + fluconazole po 400 mg q.d. x7, interval 2 h
[18] = FLU po 50 mg s.d. + fluconazole po 400 mg s.d., interval 2 h, ref 47
[19] = FLU po 50 mg s.d. + fluconazole po 400 mg s.d., interval 2 h, ref 48
[20] = FLU po 50 mg s.d. + rifampicin po 600 mg q.d. x5, interval 0 h, ref Daali et al.
[21] = FLU po 100 mg s.d. + fluconazole po 200 mg b.i.d. x2, interval 0.5 h, geometric mean, ref 44
[22] = FLU po 100 mg s.d. + fluconazole po 200 mg b.i.d. x2, interval 0.5 h, geometric mean, ref 45
[23] = FLU po 100 mg s.d. + fluconazole po 200 mg b.i.d. x2, interval 0.5 h, ref 46

CC(C(=O)O)c1ccc(-c2ccccc2)c(F)c1 (centres unmarked) [flurbiprofen]
CYP2C9 1*/3*-Vmax [1]: 9.55 pmol/min/pmol CYP | pKa [2]: 4.05 | Km [3]: 50.2 µM | UGT2B7-Vmax [3]: 119.7 pmol/min/mg protein | DDI AUC Ratio obs [4, 11]: 2.02 ^a | DDI CL/F Ratio obs [4, 11]: 0.5 ^a | DDI Cmax Ratio obs [4, 11]: 1.03 ^a | DDI AUC Ratio obs [4, 12]: 1.8 | DDI CL/F Ratio obs [4, 12]: 0.56 | DDI Cmax Ratio obs [4, 12]: 0.87 | DDI AUC Ratio obs [4, 13]: 1.58 and 1.28 | DDI CL/F Ratio obs [4, 13]: 0.75 and 0.66 | DDI Cmax Ratio obs [4, 13]: 1.08 and 0.91 | DDI AUC Ratio obs [4, 14]: 3.03 | DDI CL/F Ratio obs [4, 14]: 0.31 | DDI Cmax Ratio obs [4, 14]: 0.99 | DDI AUC Ratio obs [4, 15]: 2.48 | DDI CL/F Ratio obs [4, 15]: 0.44 | DDI Cmax Ratio obs [4, 15]: 0.94 | DDI AUC Ratio obs [4, 16]: 1.39 and 1.12 | DDI CL/F Ratio obs [4, 16]: 1.00 and 0.66 | DDI Cmax Ratio obs [4, 16]: 0.54 and 0.90 | DDI AUC Ratio obs [4, 17]: 2.81 | DDI CL/F Ratio obs [4, 17]: 0.35 | DDI Cmax Ratio obs [4, 17]: 1.37 | DDI AUC Ratio obs [4, 18]: 2.16 | DDI CL/F Ratio obs [4, 18]: 0.46 | DDI Cmax Ratio obs [4, 18]: 1.24 | DDI AUC Ratio obs [4, 19]: 1.21 | DDI CL/F Ratio obs [4, 19]: 0.67 | DDI Cmax Ratio obs [4, 19]: 1.14 | DDI AUC Ratio obs [4, 20]: 0.56 | DDI CL/F Ratio obs [4, 20]: 1.85 | DDI Cmax Ratio obs [4, 20]: 0.71 | DDI AUC Ratio obs [4, 21]: 1.97 ^b | DDI Cmax Ratio obs [4, 21]: 1.47 ^b | DDI AUC Ratio obs [4, 22]: 1.71 ^b | DDI Cmax Ratio obs [4, 22]: 1.16 ^b | DDI CL/F Ratio obs ([4]; FLU po 100 mg s.d. + fluconazole po 200 mg b.i.d. x2, interval 0.5 h, ref 44): 0.5 | DDI CL/F Ratio obs ([4]; FLU po 100 mg s.d. + fluconazole po 200 mg b.i.d. x2, interval 0.5 h, ref 45): 0.57 | DDI AUC Ratio obs [4, 23]: 1.81 | DDI CL/F Ratio obs [4, 23]: 0.55 | DDI Cmax Ratio obs [4, 23]: 1.23 | solubility at 24 h ([5]; 37 °C, aqueous buffer, thermodynamic from solid, Acetate buffer (pH = 4.5), pHfinal 4.7, read-out: Solubility, mean (SD)): 101 µg/mL (≈ 414 µM) | solubility at 24 h ([5]; 37 °C, aqueous buffer, thermodynamic from solid, Phosphate buffer (pH = 6.5), pHfinal 6.1, read-out: Solubility, mean (SD)): 2020 µg/mL (≈ 8290 µM) | solubility at 24 h ([5]; 37 °C, aqueous buffer, thermodynamic from solid, Phosphate buffer (pH = 6.8), pHfinal 6.3, read-out: Solubility, mean (SD)): 3130 µg/mL (≈ 12800 µM) | solubility at 24 h ([5]; 37 °C, fassgf or other biorelevant, thermodynamic from solid, Level III FaSSGF (pH = 1.6), pHfinal 1.6, read-out: Solubility, mean (SD)): 18.5 µg/mL (≈ 75.7 µM) | solubility at 24 h ([5]; 37 °C, thermodynamic from solid, FaSSGF Level I (pH = 1.6), pHfinal 1.6, read-out: Solubility, mean (SD)): 18.1 µg/mL (≈ 74.1 µM) | solubility at 24 h ([5]; 37 °C, thermodynamic from solid, FeSSIF V1 Level I (pH = 5.0), pHfinal 5.1, read-out: Solubility, mean (SD)): 225 µg/mL (≈ 923 µM) | solubility at 24 h ([5]; 37 °C, thermodynamic from solid, Level II FaSSIF V1 (pH = 6.5), pHfinal 6.0, read-out: Solubility, mean (SD)): 1950 µg/mL (≈ 8000 µM) | solubility at 24 h ([5]; 37 °C, thermodynamic from solid, Level II FaSSIF V3 (pH = 6.7), pHfinal 5.9, read-out: Solubility, mean (SD)): 1590 µg/mL (≈ 6490 µM) | solubility at 24 h ([5]; aqueous buffer (FaSSGF Level I), pH 1.6, minimum experimentally measured value, read-out: S0 (intrinsic solubility)): 18 µg/mL (≈ 73.7 µM) | logPo:w [6]: 3.99 | CYP2C9 1*/2*-Vmax [7]: 11.53 pmol/min/pmol CYP | Papp, Caco-2 [8]: 20.1 ×10⁻⁶ cm/s | CYP2C9 2*/2*-Vmax [9]: 10.04 pmol/min/pmol CYP | Km ([9]; read-out: CYP2C9 2*/2*-Km): 10.4 µM | CYP2C9 3*/3*-Vmax [10]: 8.901 pmol/min/pmol CYP | Km ([10]; read-out: CYP2C9 3*/3*-Km): 23.2 µM
